Results: ChEMBL document CHEMBL3098009, “Synthesis of a novel series of artemisinin dimers with potent anticancer activity involving Sonogashira cross-coupling reaction” (2014)

Assays:
Format in all cases: functional
A549 [1] = assay: Cytotoxicity against human A549 cells assessed as growth inhibition at 10 uM by SRB assay; details: read-out: GI
HeLa [2] = assay: Cytotoxicity against human HeLa cells assessed as growth inhibition at 50 uM by SRB assay; details: read-out: GI
[3] = Cytotoxicity against human prostate cancer cells assessed as growth inhibition at 10 uM by SRB assay; details: Cancer cell lines, read-out: GI
MCF7 [4] = assay: Cytotoxicity against human MCF7 cells assessed as growth inhibition at 10 uM by SRB assay; details: read-out: GI
[5] = Cytotoxicity against human IMR32 cells assessed as growth inhibition at 10 uM by SRB assay; details: IMR-32, read-out: GI
[6] = Cytotoxicity against human IMR32 cells assessed as growth inhibition at 50 uM by SRB assay; details: IMR-32, read-out: GI
[7] = Cytotoxicity against human prostate cancer cells assessed as growth inhibition at 50 uM by SRB assay; details: Cancer cell lines, read-out: GI
A549 [8] = assay: Cytotoxicity against human A549 cells assessed as growth inhibition at 50 uM by SRB assay; details: read-out: GI
HeLa [9] = assay: Cytotoxicity against human HeLa cells assessed as growth inhibition at 10 uM by SRB assay; details: read-out: GI
MCF7 [10] = assay: Cytotoxicity against human MCF7 cells assessed as growth inhibition at 50 uM by SRB assay; details: read-out: GI

| SMILES | inhibition of growth at 10 µM (A549 [1]) [%] | inhibition of growth at 50 µM (HeLa [2]) [%] | inhibition of growth at 10 µM [3] [%] | inhibition of growth at 10 µM (MCF7 [4]) [%] | inhibition of growth at 10 µM [5] [%] | inhibition of growth at 50 µM [6] [%] | inhibition of growth at 50 µM [7] [%] | inhibition of growth at 50 µM (A549 [8]) [%] | inhibition of growth at 10 µM (HeLa [9]) [%] | inhibition of growth at 50 µM (MCF7 [10]) [%] |
| --- | --- | --- | --- | --- | --- | --- | --- | --- | --- | --- |
| C[C@@H]1CC[C@H]2[C@@H](C)C(OCCC#Cc3ccc(C#CCCOC4O[C@@H]5O[C@@]6(C)CC[C@H]7[C@H](C)CC[C@@H]([C@H]4C)[C@@]57OO6)s3)O[C@@H]3O[C@@]4(C)CC[C@@H]1[C@]32OO4 (stereo partly specified) | 77 | 52 | 49 | 31 | 26 | 28 | 53 | 78 | 51 | 41 |
| C[C@@H]1CC[C@H]2[C@@H](C)C(OCCC#Cc3ccc(-c4ccc(C#CCCOC5O[C@@H]6O[C@@]7(C)CC[C@H]8[C@H](C)CC[C@@H]([C@H]5C)[C@@]68OO7)cc4)cc3)O[C@@H]3O[C@@]4(C)CC[C@@H]1[C@]32OO4 (stereo partly specified) | 67 | 50 | 41 | 24 | 4 | 27 | 47 | 74 | 18 | 38 |
| C[C@@H]1CC[C@H]2[C@@H](C)C(OCC#Cc3ccc(C#CCOC4O[C@@H]5O[C@@]6(C)CC[C@H]7[C@H](C)CC[C@@H]([C@H]4C)[C@@]57OO6)s3)O[C@@H]3O[C@@]4(C)CC[C@@H]1[C@]32OO4 (stereo partly specified) | 70 | 37 | 44 | 25 | 54 | 83 | 47 | 73 | 35 | 29 |
| O=c1[nH]cc(F)c(=O)[nH]1 [FLUOROURACIL] | – | – | – | – | – | – | – | – | 62 | – |
| C[C@@H]1CC[C@H]2[C@@H](C)C(OCC#Cc3cccc(C#CCOC4O[C@@H]5O[C@@]6(C)CC[C@H]7[C@H](C)CC[C@@H]([C@H]4C)[C@@]57OO6)c3)O[C@@H]3O[C@@]4(C)CC[C@@H]1[C@]32OO4 (stereo partly specified) | 65 | – | 50 | – | 40 | 45 | 65 | 70 | – | – |
| C[C@@H]1CC[C@H]2[C@@H](C)C(=O)O[C@@H]3O[C@@]4(C)CC[C@@H]1[C@]32OO4 [ARTEMISININ] | 26 | 66 | 35 | 25 | 24 | 34 | 40 | 38 | 51 | 36 |
| CO[C@@]12[C@H](COC(N)=O)C3=C(C(=O)C(C)=C(N)C3=O)N1C[C@@H]1N[C@@H]12 [MITOMYCIN] | – | – | 65 | – | – | – | – | – | – | – |
| C[C@@H]1CC[C@H]2[C@@H](C)C(OCC#Cc3ccc(-c4ccc(C#CCOC5O[C@@H]6O[C@@]7(C)CC[C@H]8[C@H](C)CC[C@@H]([C@H]5C)[C@@]68OO7)cc4)cc3)O[C@@H]3O[C@@]4(C)CC[C@@H]1[C@]32OO4 (stereo partly specified) | 64 | 57 | 46 | 30 | 34 | 43 | 68 | 69 | 47 | 32 |
| COc1cccc2c1C(=O)c1c(O)c3c(c(O)c1C2=O)C[C@@](O)(C(=O)CO)C[C@@H]3O[C@H]1C[C@H](N)[C@H](O)[C@H](C)O1 [DOXORUBICIN] | – | – | – | – | 69 | – | – | – | – | – |
| C[C@@H]1CC[C@H]2[C@@H](C)C(OCC#Cc3ccc(C#CCOC4O[C@@H]5O[C@@]6(C)CC[C@H]7[C@H](C)CC[C@@H]([C@H]4C)[C@@]57OO6)cc3)O[C@@H]3O[C@@]4(C)CC[C@@H]1[C@]32OO4 (stereo partly specified) | 67 | 43 | 56 | 36 | 50 | 56 | 68 | 69 | 34 | 45 |
| C[C@@H]1CC[C@H]2[C@@H](C)C(OCCC#Cc3cccc(C#CCCOC4O[C@@H]5O[C@@]6(C)CC[C@H]7[C@H](C)CC[C@@H]([C@H]4C)[C@@]57OO6)c3)O[C@@H]3O[C@@]4(C)CC[C@@H]1[C@]32OO4 (stereo partly specified) | 60 | – | 45 | – | 10 | 30 | 60 | 65 | – | – |
| CC(=O)O[C@H]1C(=O)[C@@]2(C)[C@H]([C@H](OC(=O)c3ccccc3)[C@]3(O)C[C@H](OC(=O)[C@H](O)[C@@H](NC(=O)c4ccccc4)c4ccccc4)C(C)=C1C3(C)C)[C@]1(OC(C)=O)CO[C@@H]1C[C@@H]2O [PACLITAXEL] | 56 | – | – | – | – | – | – | – | – | – |
| C[C@@H]1CC[C@H]2[C@@H](C)C(OCCC#Cc3ccc(C#CCCOC4O[C@@H]5O[C@@]6(C)CC[C@H]7[C@H](C)CC[C@@H]([C@H]4C)[C@@]57OO6)cc3)O[C@@H]3O[C@@]4(C)CC[C@@H]1[C@]32OO4 (stereo partly specified) | 56 | 24 | 48 | 26 | 11 | 37 | 55 | 72 | 20 | 41 |
